Read-outs that look alike come from different tables or passages of the source.
Experiments:
CMV [1] = assay: Quantification of viral DNA in infected cells by real-time PCR (CMV gB gene); assay type: cell-based, human cytomegalovirus; details: FIGS. 2B, 3B
Experimental: Viral DNA quantity in infected cells with and without added drugs (expressed as genome copies/well) was determined by real-time PCR assay, following DNA extraction from cells, with the use of primers and probe derived from the CMV gB gene.
The results of Example 1 were confirmed by quantitation of viral DNA using real-time PCR. […] Representative curves of viral DNA accumulation for artemisone and artesunate are depicted in FIGS. 2B and 3B, respectively.

[2] = male rats, 50 mg/kg for 14 days; cited from earlier work
human endothelial cells = details: D'Alessandro et al., 2007; cited from earlier work
CMV [3] = assay: CMV plaque reduction assay in HFF monolayers; assay type: cell-based, human cytomegalovirus
Description: The CMV strains used were: AD169 (obtained from the American Type Culture Collection), and TB40/E. In addition, low-passage clinical isolates CI704, and CI893, recovered at the Hadassah Clinical Virology Laboratory from the urine of congenitally-infected newborns, and propagated for 3-5 passages, were used for some experiments. All CMV strains were propagated and titered in human foreskin fibroblasts (HFF) cells. Cell-free virus stocks and cell-associated clinical isolates were maintained at −70° C. Viral stocks were titered by serial 10-fold dilution in 24-well tissue culture plates containing HFF monolayers overlaid with agarose-medium. After incubation for 7 to 10 days, plaques were enumerated, and virus titer was determined as plaque forming units (PFU) per milliliter (ml). Stocks of artemisone, artemiside, RW177, compound IX, and artesunate were freshly prepared at 10 mM concentration in DMSO. Ganciclovir, stored as 10 mM stock was used in comparative assays.
Cell monolayers were inoculated in 24-well culture plates with 0.2 ml of virus suspension containing 60 to 100 PFU per well. After adsorption for 60 min at 37° C., the inoculum was removed, and culture medium was replaced with agarose-medium overlay containing the tested drug. The following final drug concentrations were used: Artemisone: 0, 0.1, 1, 5, 10, 25, and 50 μM; Artesunate: 0, 1, 5, 10, 25, 50, and 100 μM; Ganciclovir, artemiside, compound IX and RW177: 0, 0.1, 1, 5, 10, 25, and 50 μM. Plates were incubated for 10 days at 37° C. in a 5% CO2 incubator. Plaques were then counted microscopically. The drug concentration required to reduce the number of plaques to 50% of the control value (IC50), was calculated.
(§1) Antiviral activity of artemisone was determined by applying various drug concentrations to a growing virus in cell culture, using a standard plaque reduction assay. Artesunate, a compound known to have significant anti-viral activity, was tested in parallel. Ganciclovir was used as an additional positive control. The IC50 values of at least three separate experiments with each drug and virus were averaged, and the results are reported as mean±standard deviation values. Representative curves of plaque reduction assay for artemisone and artesunate are depicted in FIGS. 2A and 3A, respectively.

[4] = test system: HCMV strain AD169 pp65 antigen; assay: Immunofluorescence assay of viral late (pp65) gene expression; assay type: cell-based, human cytomegalovirus; details: 72 hpi; for viral late (pp65) gene expression (in words): 25 μM
Experimental: (§2) Human foreskin fibroblasts (HFF) were infected with HCMV strain AD169. At 1 hour post infection (hpi), artemisone (25 μM) or ganciclovir (25 μM) were added to the growth medium, and the cells were further incubated in the presence of the drug, until prepared for immunofluorescence analysis at 24 and 72 hpi—to analyze the expression of IE and pp65, respectively. Control untreated infected cells, and mock-infected cells were analyzed in parallel.
(§3) Cells grown on 8-well glass slides were infected at a multiplicity of infection (moi) of 0.1 PFU/cell. Supernatant was removed at 24 and 72 hpi, and cells were washed 3 times with PBS and fixed with 3.7% formaldehyde for 30 minutes at room temperature. Cells were washed 5 times with PBS+1% NH4Cl, permeabilized by 0.1% TX100 for 5 minutes and washed 5 times with PBS+1% NH4Cl. After 1 hour of blocking using 1% BSA in PBS, the indicated primary monoclonal antibodies (IE1/2 or pp65) were added to the cells in appropriate dilution in 0.5% BSA in PBS and incubated either at room temperature for 2 hours or overnight at 4° C. The secondary antibody was added to the cells in appropriate dilution in PBS containing 0.5% BSA for 30 minutes at room temperature and washed by PBS.
(§4) Following mounting with commercial mounting media, with addition of 4′,6-diamidino-2-phenylindole (DAPI) nuclear stain (yielding nuclear blue stain in all cells), the cells were analyzed by fluorescence microscopy. Results were monitored on at least 3 independent experiments, scoring at least 5 fields (of between 500 and 800 cells each) for each treatment arm.

[5] = test system: human foreskin fibroblasts (HFF) cells; assay: Cytotoxicity observed alongside plaque reduction assay; assay type: cell-based
CMV [6] = assay: CMV antiviral activity in retinal epithelial cells (RPE) culture; assay type: cell-based, human cytomegalovirus
Experimental: as §1

[7] = preclinical in vitro and in vivo screens; cited from earlier work
[8] = test system: HCMV strain AD169 IE1/2 antigen; assay: Immunofluorescence assay of viral immediate early (IE1/2) gene expression; assay type: cell-based, human cytomegalovirus; details: 24 hpi; for viral IE gene expression (in words): 25 μM
Experimental: as §2, §3, §4

HCMV strain TB40/E = assay: Antiviral drug susceptibility in ex-vivo HCMV-infected decidual organ cultures (normalized viral DNA); assay type: cell-based, human cytomegalovirus; details: Human betaherpesvirus 5, TB40/E 10^5 PFU/well, 8 dpi, read-out: IC50 (drug concentration required to reduce normalized tissue viral DNA copy number by 50%)
Experimental: For infection of decidual organ cultures, the tissues were placed in 48-well plates (˜5 slices/well to maintain optimal viability) immediately after the sectioning and inoculated with the indicated virus (10^4 plaque forming units/well, unless indicated otherwise) for 12 hours to allow effective viral adsorption. Following viral adsorption, the cultures were washed extensively and further incubated for the duration of the experiment with replacement of the culture medium every 2-3 days.
DNA and RNA were extracted from the samples using the QIAamp DNA Mini Kit extraction kit and RNeasy Mini Kit (QIAGEN, Hilden, Germany) respectively, according to the manufacturer's instructions. The purified DNA samples were subjected to a quantitative real-time PCR reaction on a 7900HT Real Time PCR system (Applied Biosystems, Foster City, Calif., USA), using primers and probes derived from the HCMV glycoprotein B (gB) as described in Boeckh et al., 2004, J. Clin. Microbiol., 42, 1142-1148. […] The purified RNA samples were subjected to reverse transcription using GoScript™ (Promega, Madison, USA), followed by quantitative real-time PCR of the late HCMV R160461 spliced mRNA as described in White et al., 2004, J. Virol., 78, 1817-1830. […]

[9] = Human betaherpesvirus 5, 240 h, read-out: IC50 (drug concentration required to reduce the number of plaques to 50% of control), mean ± standard deviation
[10] = pp65 antigen, drug 25 μM, HFF, AD169
[11] = IE1 ± IE2 antigen, drug 25 μM, HFF, AD169

Compound | IC50 (CMV [3]; [9]) [nM] | viral late (pp65) gene expression (in words) [4] | CMV antigen-positive cells (%) [4, 10] [%] | viral IE gene expression (in words) [8] | CMV antigen-positive cells (%) [8, 11] [%] | IC50 (HCMV strain TB40/E) [nM] | also measured
CC1CCC2[C@@H](C)[C@H](N3CCS(=O)(=O)CC3)OC3O[C@]4(C)CCC1C32OO4 (stereo in doubt) [Artemisone] | 900 ± 300 | highly efficient reduction | 0 | significant reduction | 0 | – | antiviral efficacy by quantitation of viral DNA (CMV [1]): far superior to that of artesunate; tolerability [2]: no effect as compared to controls; anti-angiogenic effect compared to dihydroartemisinin (human endothelial cells): significantly less anti-angiogenic than dihydroartemisinin; IC50 (CMV [3]; Human betaherpesvirus 5, representative curve, FIG. 2A / FIG. 3A, read-out: IC50 value for this assay (inhibition of CMV plaque formation, dose response curve)): 1200 nM; cytotoxicity [5]: no cytotoxicity; antiviral activity compared to artesunate (CMV [6]): Superior antiviral activity; neurotoxicity [7]: does not elicit neurotoxicity
C[C@H]1[C@H](OC(=O)CCC(=O)O)O[C@@H]2O[C@@]3(C)CC[C@H]4[C@H](C)CC[C@@H]1[C@@]24OO3 [Artesunate, artesunate, reference compound] | 10800 ± 4200 | – | – | – | – | – | IC50 (CMV [3]; Human betaherpesvirus 5, read-out: IC50 value for this assay (inhibition of CMV plaque formation, dose response curve)): 15000 nM
Nc1nc(O)c2ncn(COC(CO)CO)c2n1 [Ganciclovir, ganciclovir] | – | highly efficient reduction | 0.18 | did not inhibit IE gene expression | 5.97 | 1500 | CMV antigen-positive cells per field (N) [4, 10]: 1 ± 0.25; CMV antigen-positive cells per field (N) [8, 11]: 33 ± 5
Nc1nc2c(ncn2COCCO)c(=O)[nH]1 [acyclovir] | – | – | – | – | – | 18300 | –
C[C@H]1[C@H](N2CCSCC2)O[C@@H]2O[C@@]3(C)CC[C@H]4[C@H](C)CC[C@@H]1[C@@]24OO3 [artemiside, reference compound] | > 40000 | – | – | – | – | – | –
CC1CCC2[C@@H](C)[C@H](NS(N)(=O)=O)OC3O[C@]4(C)CCC1C32OO4 (stereo partly drawn) [compound IX] | – | – | – | – | – | – | IC50 (CMV [3]; Human betaherpesvirus 5, 240 h, at least three separate experiments averaged, 10 days incubation, read-out: IC50 (drug concentration required to reduce the number of plaques to 50% of control), mean ± standard deviation): 2100 ± 600 nM
